# Data from patent publication US20040110802A1, “Antibacterial benzoic acid derivatives” (priority 2002, published 2004).
# Test system: SAUR 9218
# Assay: MIC Test Method, standard agar dilution
# Format: cell-based
# Conditions: agar dilution, Mueller Hinton agar, incubated overnight at 35° C.; lowest concentration that inhibits visible growth; read-out: SAUR 9218 MIC
# Method in brief: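 Agar dilution in Mueller Hinton agar with serial 2-fold compound dilutions. Staphylococcus aureus strain 9218 spotted at approximately 10^4 to 10^5 cells per spot, incubated overnight at 35 °C; MIC (μg/ml) is the lowest concentration preventing visible growth.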
row,SMILES,MIC
1,CCCCCCCC(=O)Nc1cccc2cc(C(=O)Nc3ccc(C#N)cc3C(=O)O)[nH]c12,0.125 µg/mL
2,CCCCN(CCCC)CCCNS(=O)(=O)c1cc(C(=O)Nc2ccc(Br)cc2C(=O)O)cs1,> 128 µg/mL
3,Cc1c(S(=O)(=O)Nc2ccc3c(c2)OCCO3)csc1C(=O)Nc1ccc(Br)cc1C(=O)O,16 µg/mL
4,N#Cc1ccc(NC(=O)c2cc3ccccc3n2Cc2ccccc2)c(C(=O)O)c1,8 µg/mL
5,COCc1onc(C(=O)Nc2ccc(C#N)cc2C(=O)O)c1COC,16 µg/mL
6,Cc1sc(C(=O)Nc2ccc(C#N)cc2C(=O)O)cc1S(=O)(=O)N1CCCCCCC1,8 µg/mL
7,CSc1ccc(C(=O)Nc2ccc(C#N)cc2C(=O)O)cn1.Cl,4 µg/mL
8,CSc1ncccc1C(=O)Nc1ccc(Br)cc1C(=O)O,> 128 µg/mL
9,Cn1c(C(=O)Nc2ccc(C#N)cc2C(=O)O)cc2cccc(NC(=O)N3CCOCC3)c21,8 µg/mL
10,N#Cc1ccc(NC(=O)c2cc3cccc(Cl)c3[nH]2)c(C(=O)O)c1,1 µg/mL
11,O=C(O)c1cc(Br)ccc1NC(=O)c1cc2ccccc2n1Cc1ccccc1,4 µg/mL
12,Cn1c(C(=O)Nc2ccc(Cl)cc2C(=O)O)cc2cccc(S(=O)(=O)c3ccccc3)c21,0.125 µg/mL
13,Cc1c(S(=O)(=O)N2CC3CC2CN3Cc2ccccc2)csc1C(=O)Nc1ccc(Br)cc1C(=O)O (centres unmarked),> 128 µg/mL
14,O=C(O)c1cc(Br)ccc1NC(=O)c1ncccc1C(=O)c1ccccc1,> 128 µg/mL
15,Cc1sc(C(=O)Nc2ccc(C#N)cc2C(=O)O)cc1S(=O)(=O)N1CC(C)CC(C)C1 (centres unmarked),16 µg/mL
16,CN(c1ccc(Cl)cc1)S(=O)(=O)c1cc(C(=O)Nc2ccc(Br)cc2C(=O)O)cs1 [drawing 1603],4 µg/mL
17,CCO/N=C1\CCn2c(C(=O)Nc3ccc(C#N)cc3C(=O)O)cc3cccc1c32,1 µg/mL
18,N#Cc1ccc(NC(=O)c2cc3cccc(NC(=O)Cc4ccc(Cl)cc4)c3[nH]2)c(C(=O)O)c1,0.25 µg/mL
19,N#Cc1ccc(NC(=O)c2cc3cccc(NC(=O)c4ccno4)c3[nH]2)c(C(=O)O)c1,2 µg/mL
20,COc1cccc(-c2cc(C(=O)Nc3ccc(O)cc3C(=O)O)no2)c1,0.25 µg/mL
21,COc1ccc(CCCC(=O)Nc2cccc3cc(C(=O)Nc4ccc(C#N)cc4C(=O)O)[nH]c23)cc1,1 µg/mL
22,COc1cccc(-c2cnc(C(=O)Nc3ccc(Br)cc3C(=O)O)o2)c1,1 µg/mL

row,SMILES,MIC
1,Cn1c(C(=O)Nc2ccc(C#N)cc2C(=O)O)cc2cccc(NS(C)(=O)=O)c21,0.5 µg/mL
2,Cc1cnc(C(=O)Nc2ccc(Br)cc2C(=O)O)cn1,128 µg/mL
3,NS(=O)(=O)c1ccc2onc(C(=O)Nc3ccc(Br)cc3C(=O)O)c2c1,0.25 µg/mL
4,Cc1sc(C(=O)Nc2ccc(C#N)cc2C(=O)O)cc1S(=O)(=O)N1CCN(c2ccc(F)cc2)CC1,16 µg/mL
5,O=C(Nc1ccc(Br)cc1C(=O)O)c1ccc(SC2CCOCC2)nc1,1 µg/mL
6,Cc1c(S(=O)(=O)N(C)c2ccc(Cl)cc2)csc1C(=O)Nc1ccc(Br)cc1C(=O)O,8 µg/mL
7,N#Cc1ccc(NC(=O)c2cncc(-c3cccc(C(F)(F)F)c3)c2)c(C(=O)O)c1,16 µg/mL
8,COc1ccccc1-c1cnc(C(=O)Nc2ccc(C#N)cc2C(=O)O)o1,1 µg/mL
9,N#Cc1ccc(NC(=O)c2noc3ccc(NS(=O)(=O)c4ccccc4)cc23)c(C(=O)O)c1,0.125 µg/mL
10,CN(C)S(=O)(=O)c1ccc2onc(C(=O)Nc3ccc(C#N)cc3C(=O)O)c2c1,0.125 µg/mL
11,N#Cc1ccc(NC(=O)c2cncc(C#CCO)c2)c(C(=O)O)c1,64 µg/mL
12,Cc1sc(C(=O)Nc2ccc(Br)cc2C(=O)O)cc1S(=O)(=O)N1CCN(c2ccc(Cl)cc2)CC1,> 128 µg/mL
13,COc1cnc(C(=O)Nc2ccc(C#N)cc2C(=O)O)cn1,8 µg/mL
14,N#Cc1ccc(NC(=O)c2noc3ccc(NC(=O)c4ccccc4)cc23)c(C(=O)O)c1,1 µg/mL
15,Cn1c(C(=O)Nc2ccc(Br)cc2C(=O)O)cc2cccc(S(=O)(=O)c3ccccc3)c21,0.125 µg/mL
16,O=C(Nc1ccc(Br)cc1C(=O)O)c1cc(-c2ccccc2Cl)on1,0.125 µg/mL
17,Cn1c(/C=C/c2ccc(C#N)cc2C(=O)O)cc2ccccc21,64 µg/mL
18,Cn1cccc1-c1cnc(C(=O)Nc2ccc(Br)cc2C(=O)O)o1,2 µg/mL
19,Cn1c(C(=O)Nc2ccc(C#N)cc2C(=O)O)cc2cccc(NS(=O)(=O)CS(C)(=O)=O)c21,2 µg/mL
20,CN(C)S(=O)(=O)c1ccc2onc(C(=O)Nc3ccc(Br)cc3C(=O)O)c2c1,0.25 µg/mL
21,N#Cc1ccc(NC(=O)c2cc(-c3ccccc3OCC3CCC3)on2)c(C(=O)O)c1,0.125 µg/mL
22,N#Cc1ccc(NC(=O)c2ccc(S(=O)(=O)N3CCc4cc(Cl)ccc43)nc2)c(C(=O)O)c1,2 µg/mL

row,SMILES,MIC
1,COC(Cc1cnc(C(=O)Nc2ccc(Br)cc2C(=O)O)cn1)[C@H]1COC2(CCCCC2)O1 (some centres unmarked),128 µg/mL
2,Cc1ccccc1-c1ccc2onc(C(=O)Nc3ccc(C#N)cc3C(=O)O)c2c1,0.125 µg/mL
3,Cc1sc(C(=O)Nc2ccc(C#N)cc2C(=O)O)cc1S(=O)(=O)N(C)C1CCCCC1,8 µg/mL
4,CCOc1ccccc1-c1cc(C(=O)Nc2ccc(C#N)cc2C(=O)O)no1,0.125 µg/mL
5,C=CCN(C1CCCC1)S(=O)(=O)c1cc(C(=O)Nc2ccc(C#N)cc2C(=O)O)sc1C,8 µg/mL
6,CCCCCn1c(C(=O)Nc2ccc(C#N)cc2C(=O)O)cc2ccccc21,2 µg/mL
7,CC(C)=CCOCC(O)COc1cccc2cc(C(=O)Nc3ccc(C#N)cc3C(=O)O)n(C)c12 (centres unmarked),0.5 µg/mL
8,N#Cc1ccc(NC(=O)c2nsc3ccccc23)c(C(=O)O)c1,1 µg/mL
9,N#Cc1ccc(NC(=O)c2ncc(-c3ccc(F)cc3)o2)c(C(=O)O)c1,1 µg/mL
10,N#Cc1ccc(NC(=O)c2cc3cccc(NC(=O)c4cc(-c5ccccc5)on4)c3[nH]2)c(C(=O)O)c1,1 µg/mL
11,Cc1noc(C)c1-c1cnc(C(=O)Nc2ccc(C#N)cc2C(=O)O)cn1,> 128 µg/mL
12,CS(=O)(=O)c1ccc(-c2cnc(C(=O)Nc3ccc(C#N)cc3C(=O)O)cn2)cc1,> 128 µg/mL
13,COc1ncc(C#Cc2cncc(C(=O)Nc3ccc(C#N)cc3C(=O)O)c2)c(OC)n1,> 128 µg/mL
14,CCCCCCOc1cnc(C(=O)Nc2ccc(C#N)cc2C(=O)O)cn1,0.125 µg/mL
15,N#Cc1ccc(NC(=O)c2noc3ccc(S(=O)(=O)N4CCCC4)cc23)c(C(=O)O)c1,0.06 µg/mL
16,N#Cc1ccc(NC(=O)c2cc(CN=[N+]=[N-])on2)c(C(=O)O)c1,4 µg/mL
17,N#Cc1ccc(NC(=O)c2cc3cccc(NC(=O)CCCc4ccccc4)c3[nH]2)c(C(=O)O)c1,0.5 µg/mL
18,CCCCCCCCCSc1ccc(C(=O)Nc2ccc(C#N)cc2C(=O)O)cn1,1 µg/mL
19,COCCOCCCSc1cnc(C(=O)Nc2ccc(Cl)cc2C(=O)O)cn1,2 µg/mL
20,N#Cc1ccc(NC(=O)c2noc3ccc(S(=O)(=O)N4CCOCC4)cc23)c(C(=O)O)c1,0.5 µg/mL
21,COc1cccc2[nH]c(C(=O)Nc3ccc(C#N)cc3C(=O)O)cc12,0.25 µg/mL
22,N#Cc1ccc(NC(=O)c2cc3ccccc3o2)c(C(=O)O)c1,2 µg/mL

row,SMILES,MIC
1,N#Cc1ccc(NC(=O)c2noc3ccc(S(=O)(=O)N4CCc5cc(Cl)ccc54)cc23)c(C(=O)O)c1,0.03 µg/mL
2,Cn1c(C(=O)Nc2ccc(I)cc2C(=O)O)cc2cccc(S(=O)(=O)c3ccccc3)c21,0.125 µg/mL
3,Cc1sc(C(=O)Nc2ccc(C#N)cc2C(=O)O)cc1S(=O)(=O)N1CC(C)OC(C)C1 (centres unmarked),16 µg/mL
4,CC(C)OCC(O)COc1cccc2cc(C(=O)Nc3ccc(C#N)cc3C(=O)O)n(C)c12 (centres unmarked),0.25 µg/mL
5,Cn1nc(C(=O)Nc2ccc(C#N)cc2C(=O)O)c2ccccc21,32 µg/mL
6,O=C(O)c1cc(Br)ccc1NC(=O)c1onc2ccccc12,2 µg/mL
7,CCSc1ccc(C(=O)Nc2cccc3cc(C(=O)Nc4ccc(C#N)cc4C(=O)O)[nH]c23)cc1,0.25 µg/mL
8,CCCCn1c(C(=O)Nc2ccc(Cl)cc2C(=O)O)cc2ccccc21,4 µg/mL
9,CS(=O)(=O)c1ncc(N2CCOCC2)c(C(=O)Nc2ccc(Br)cc2C(=O)O)n1,> 128 µg/mL
10,Cc1cc(C(=O)Nc2ccc(Br)cc2C(=O)O)c(C)o1,> 128 µg/mL
11,Cn1c(C(=O)Nc2ccc(C#N)cc2C(=O)O)cc2ccc(N(S(=O)(=O)c3cccs3)S(=O)(=O)c3cccs3)cc21,0.06 µg/mL
12,COc1ccc(CC(=O)Nc2cccc3cc(C(=O)Nc4ccc(C#N)cc4C(=O)O)[nH]c23)cc1OC,1 µg/mL
13,O=C(O)c1cc(Br)ccc1NC(=O)c1noc2ccc(S(=O)(=O)Nc3ccccc3)cc12,0.03 µg/mL
14,CC(C)n1c(C(=O)Nc2ccc(Br)cc2C(=O)O)cc2ccccc21,4 µg/mL
15,COCC(O)COc1cccc2cc(C(=O)Nc3ccc(C#N)cc3C(=O)O)n(C)c12 (centres unmarked),0.5 µg/mL
16,CCCCN(CCCC)CCCNS(=O)(=O)c1csc(C(=O)Nc2ccc(Br)cc2C(=O)O)c1C,> 128 µg/mL
17,N#Cc1ccc(/C=C/c2cc(-c3ccccc3)on2)c(C(=O)O)c1,64 µg/mL
18,N#Cc1ccc(NC(=O)c2ccsc2)c(C(=O)O)c1,> 128 µg/mL
19,O=C(O)c1cc(Br)ccc1NC(=O)c1cc2ccccc2n1CCCc1ccccc1,4 µg/mL

# Same assay, conditions: read-out: SAUR 9218 MIC
row,SMILES,MIC
1,N#Cc1ccc(NC(=O)c2cc3cccc(NC(=O)CF)c3[nH]2)c(C(=O)O)c1,2 µg/mL
